Source: ChEMBL document CHEMBL1154296, “Potent inhibitors of beta-tryptase and human leukocyte elastase based on the MCoTI-II scaffold” (J Med Chem, 2009)
Starred links: 1 amine or outer side, 2 acyl side, 3 side chain; linkers in the order of their positions; H or OH if unused. Positions of bridges follow the written chain, without caps; N, C: chain ends. Non-standard residues stand in square brackets, D forms with d. Residues, ends and D or L forms follow the SMILES beside them. X2 = N=C(N)NCCC[C@@H](C(=O)[C@H](CCC(N)=O)N[*:1])C(=O)[*:2]

Experiments:
Neutrophil elastase = target: T1, Neutrophil elastase (Homo sapiens, UniProt P08246); assay: Inhibition of human leukocyte elastase by substrate hydrolysis based fluorescence assay; settings: read-out: Ki
T1 sequence (P08246 whole entry): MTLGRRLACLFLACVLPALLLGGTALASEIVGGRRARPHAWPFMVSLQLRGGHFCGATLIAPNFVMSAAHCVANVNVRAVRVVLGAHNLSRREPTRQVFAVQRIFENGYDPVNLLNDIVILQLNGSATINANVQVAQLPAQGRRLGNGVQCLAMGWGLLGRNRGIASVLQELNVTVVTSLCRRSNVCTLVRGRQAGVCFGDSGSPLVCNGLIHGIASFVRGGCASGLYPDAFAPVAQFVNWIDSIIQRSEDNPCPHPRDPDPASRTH

[1] = Inhibition of trypsin by substrate hydrolysis based fluorescence assay
[2] = Inhibition of tryptase by substrate hydrolysis based fluorescence assay

Row | Ki (Neutrophil elastase) | Ki [1] | Ki [2] | Structure (SMILES)
1 | > 7.5 µM | > 0.000105 µM | > 50 µM | CC[C@H](C)[C@@H]1NC(=O)[C@@H]2CSSC[C@@H]3NC(=O)[C@H](C(C)C)NC(=O)CNC(=O)CNC(=O)[C@H](CC(=O)O)NC(=O)[C@H](CO)NC(=O)CNC(=O)[C@H](CO)NC(=O)CNC(=O)[C@@H]4CSSC[C@H](NC(=O)[C@H](CC(=O)O)NC(=O)[C@H](CO)NC(=O)[C@H](CC(=O)O)NC(=O)[C@H](CCCNC(=N)N)NC(=O)[C@H](CCCNC(=N)N)NC(=O)[C@H](CSSC[C@H](NC1=O)C(=O)N[C@@H](CCCNC(=N)N)C(=O)NCC(=O)N[C@@H](CC(N)=O)C(=O)NCC(=O)N[C@@H](Cc1ccc(O)cc1)C(=O)N4)NC(=O)[C@@H](CCCNC(=N)N)C(=O)[C@H](CCC(N)=O)NC(=O)[C@H](CC(C)C)NC(=O)[C@H]([C@@H](C)CC)NC(=O)[C@H](Cc1ccccc1)NC(=O)[C@@H]1CCCN1C3=O)C(=O)N1CCC[C@H]1C(=O)NCC(=O)N[C@@H](C)C(=O)N2 (cyclo(ACICRGNGYCGSGSDGGVCPFIL[X2]CRRDSDCPG); disulfide 2-19, 4-25, 10-31)
2 | 0.021 µM | > 0.000109 µM | > 50 µM | CC[C@H](C)[C@@H]1NC(=O)[C@@H]2CSSC[C@@H]3NC(=O)[C@H](C(C)C)NC(=O)CNC(=O)CNC(=O)[C@H](CC(=O)O)NC(=O)[C@H](CO)NC(=O)CNC(=O)[C@H](CO)NC(=O)CNC(=O)[C@@H]4CSSC[C@H](NC(=O)[C@H](CC(=O)O)NC(=O)[C@H](CO)NC(=O)[C@H](CC(=O)O)NC(=O)[C@H](CCCNC(=N)N)NC(=O)[C@H](CCCNC(=N)N)NC(=O)[C@H](CSSC[C@H](NC1=O)C(=O)N[C@@H](CCCNC(=N)N)C(=O)NCC(=O)N[C@@H](CC(N)=O)C(=O)NCC(=O)N[C@@H](Cc1ccc(O)cc1)C(=O)N4)NC(=O)[C@@H](CCCNC(=N)N)C(=O)[C@H](CCC(N)=O)NC(=O)[C@H](CC(C)C)NC(=O)[C@H]([C@@H](C)CC)NC(=O)[C@H](C(C)C)NC(=O)[C@@H]1CCCN1C3=O)C(=O)N1CCC[C@H]1C(=O)NCC(=O)N[C@@H](C)C(=O)N2 (cyclo(ACICRGNGYCGSGSDGGVCPVIL[X2]CRRDSDCPG); disulfide 2-19, 4-25, 10-31)
